pKi: −log10 of the molar value. Like-named read-outs stand apart in the source and are kept apart here. Values belong to the compound of their own block, whether it stands above or below them.
Assays:
[1] = biological target: T1, human adenosine A1 receptor (Homo sapiens, UniProt P30542); test: Radioligand displacement assay, human adenosine A1 receptor ([3H]DPCPX, CHOhA1R membranes); format: binding; conditions: n = 3; for inhibition at 10 µM: test compound 10 µM; for pKi: footnote a: tested at 1 µM, read-out: A1 Ki (bound, footnote a); for A1 displacement at 1 µM: footnote a: test compound 1 µM
T1 construct: expressed in transfected cells; host or cells: CHO cells (CHOhA1R), gift of Prof; S. J. Hill; membrane preparation
T1 sequence (P30542 1-326): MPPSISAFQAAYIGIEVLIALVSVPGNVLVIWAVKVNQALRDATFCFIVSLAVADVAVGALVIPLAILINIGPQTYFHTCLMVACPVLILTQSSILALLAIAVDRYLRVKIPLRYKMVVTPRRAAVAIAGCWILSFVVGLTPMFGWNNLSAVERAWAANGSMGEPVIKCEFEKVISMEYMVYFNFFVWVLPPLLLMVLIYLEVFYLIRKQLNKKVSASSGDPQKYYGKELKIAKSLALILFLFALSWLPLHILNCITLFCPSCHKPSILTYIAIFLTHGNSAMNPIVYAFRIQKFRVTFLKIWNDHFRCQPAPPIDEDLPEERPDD
Protocol: Chinese hamster ovary (CHO) cells stably expressing the human adenosine A1 receptor (CHOhA1R) were kindly provided by Prof. S. J. Hill and CHO cells stably expressing the human adenosine A3 receptor (CHOhA3R) were a gift from Dr. K.-N. Klotz (University of Würzburg, Germany). Chinese hamster ovary cells stably expressing the human A1-receptor (CHOhA1R) or the human A3-receptor (CHOhA3R) were grown in Dulbecco’s Modified Eagle’s Medium (DMEM) and Ham’s F12 medium (1:1) supplemented with 10% (v/v) newborn calf serum, 50 µg/mL streptomycin, 50 IU/mL penicillin, and 200 µg/mL G418 at 37 °C and 5% CO2. […] All cells were grown to 80–90% confluency and detached from plates by scraping them into 5 mL phosphate-buffered saline. Detached cells were collected and centrifuged at 200 g for 5 min. Pellets derived from 100 15 cm Ø plates were pooled and resuspended in 70 mL of ice-cold 50 mM tris(hydroxymethyl)aminomethane (Tris)-HCl buffer, pH 7.4. A Heidolph Diax 900 homogenizer was used to homogenize the cell suspension. Membranes and the cytosolic fraction were separated by centrifugation at 100,000 g in a Beckman Optima LE-80 K ultracentrifuge (Beckman Coulter, Fullerton, CA, USA) at 4 °C for 20 min. The pellet was resuspended in 35 mL of the Tris-HCl buffer, and the homogenization and centrifugation steps were repeated. Tris-HCl buffer (25 mL) was used to resuspend the pellet, and adenosine deaminase (ADA) was added (0.8 U/mL) to break down endogenous adenosine. Membranes were stored in 250 µL and 500 µL aliquots at −80 °C. Total protein concentrations were measured using the bicinchoninic acid (BCA) method.
A1 Receptor: Membrane aliquots containing 5 µg (CHOhA1R) protein were incubated in a total volume of 100 µL assay buffer (50 mM Tris-HCl, pH 7.4) at 25 °C for 1 h. […] Nonspecific binding was determined in the presence of 100 µM N^6-cyclopentyladenosine (CPA). Incubations were terminated by rapid vacuum filtration to separate the bound and free radioligand through prewetted 96-well GF/B filter plates using a PerkinElmer Filtermate-harvester (Perkin Elmer, Groningen, the Netherlands). Filters were subsequently washed 12 times with ice-cold 50 mM Tris-HCl, pH 7.4.
(§1) The plates of all four adenosine receptor assays were dried at 55 °C after which MicroscintTM-20-cocktail was added (Perkin Elmer, Groningen, The Netherlands).
(§2) All experimental data were analyzed using the non-linear regression curve fitting program GraphPad Prism 7.0 (GraphPad Software Inc., San Diego, CA, USA). IC50 values obtained from competition displacement binding data were converted into Ki values using the Cheng–Prusoff equation.

[2] = biological target: T2, hA2B receptor (Homo sapiens, UniProt P29275); test: Radioligand displacement assay, human adenosine A2B receptor ([3H]PSB-603, CHO-spap-hA2BR membranes); format: binding; conditions: n = 3; for A2B displacement at 1 µM: footnote a: test compound 1 µM
T2 construct: expressed in transfected cells; host or cells: CHO-spap cells (CHO-spap-hA2BR), from S. J. Dowell (GlaxoSmithKline); membrane preparation
T2 sequence (P29275 1-332): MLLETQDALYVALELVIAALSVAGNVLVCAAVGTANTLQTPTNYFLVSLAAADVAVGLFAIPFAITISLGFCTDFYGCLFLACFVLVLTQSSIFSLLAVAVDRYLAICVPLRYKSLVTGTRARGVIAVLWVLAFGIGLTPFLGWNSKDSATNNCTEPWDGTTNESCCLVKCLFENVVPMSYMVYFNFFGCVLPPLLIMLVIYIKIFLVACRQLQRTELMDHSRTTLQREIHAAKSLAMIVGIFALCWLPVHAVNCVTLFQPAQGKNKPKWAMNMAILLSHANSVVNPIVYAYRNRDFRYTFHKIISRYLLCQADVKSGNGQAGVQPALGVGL
Protocol: Human embryonic kidney 293 cells stably expressing the human adenosine A2A receptor (HEK293hA2AR) were kindly provided by Dr. J. Wang (Biogen/IDEC, Cambridge, MA, USA), CHO-spap cells stably expressing the wild-type (WT) hA2B receptor (CHO-spap-hA2BR) were kindly provided by S. J. Dowell (GlaxoSmithKline, Brentfort, UK).
Chinese hamster ovary cells stably expressing the […] and a reporter gene, the secreted placental alkaline phosphatase, (CHO-spap-hA2BR) were grown in DMEM and Ham’s F12 medium (1:1) supplemented with 10% (v/v) newborn calf serum, 100 µg/mL streptomycin, 100 IU/mL penicillin, 1 mg/mL G418, and 0.4 mg/mL hygromycin at 37 °C and 5% CO2.
All cells were grown to 80–90% confluency and detached from plates by scraping them into 5 mL phosphate-buffered saline. Detached cells were collected and centrifuged at 200 g for 5 min. Pellets derived from 100 15 cm Ø plates were pooled and resuspended in 70 mL of ice-cold 50 mM tris(hydroxymethyl)aminomethane (Tris)-HCl buffer, pH 7.4. A Heidolph Diax 900 homogenizer was used to homogenize the cell suspension. Membranes and the cytosolic fraction were separated by centrifugation at 100,000 g in a Beckman Optima LE-80 K ultracentrifuge (Beckman Coulter, Fullerton, CA, USA) at 4 °C for 20 min. The pellet was resuspended in 35 mL of the Tris-HCl buffer, and the homogenization and centrifugation steps were repeated. Tris-HCl buffer (25 mL) was used to resuspend the pellet, and adenosine deaminase (ADA) was added (0.8 U/mL) to break down endogenous adenosine. Membranes were stored in 250 µL and 500 µL aliquots at −80 °C. Total protein concentrations were measured using the bicinchoninic acid (BCA) method.
A2B Receptor: Membrane aliquots containing 30 µg (CHO-spap-hA2BR) total protein were incubated in a total volume of 100 µL assay buffer (0.1% CHAPS in 50 mM TrisHCl, pH 7.4) at 25 °C for 2 h. […] Nonspecific binding was determined in the presence of 10 µM ZM241385. Incubations were terminated by rapid vacuum filtration to separate the bound and free radioligand through prewetted 96-well GF/B filter plates using a PerkinElmer Filtermate-harvester (Perkin Elmer, Groningen, the Netherlands). Filters were subsequently washed 12 times with ice-cold 0.1% BSA in 50 mM Tris-HCl, pH 7.4.
as §1, §2

[3] = [3H]PSB-603, read-out: A2B Ki ± SEM
[4] = footnote a: tested at 1 µM, read-out: A2B Ki (bound, footnote a)

inhibition at 10 µM [1]: 19% | pKi [2, 3]: < 5.00
SMILES: COC(=O)CCc1cn(C[C@@]23C[C@@H]2[C@@H](n2cnc4c(N)nc(SC)nc42)[C@H](O)[C@@H]3O)nn1 [Compound 42, Methyl 3-(1-{[(1R,2R,3S,4R,5S)-4-(6-amino-2-methylthio-9H-purin-9-yl)-2,3-dihydroxybicyclo[3.1.0]hex-1-yl]methyl}-1H-1,2,3-triazol-4-yl)propanoate]

inhibition at 10 µM [1]: 5% | pKi [2, 3]: < 5.00
SMILES: CSc1nc(N)c2ncn([C@H]3[C@H](O)[C@H](O)[C@]4(Cn5cc(CN)nn5)C[C@H]34)c2n1 [Compound 43, (1R,2R,3S,4R,5S)-4-(6-Amino-2-methylthio-9H-purin-9-yl)-1-{[4-(aminomethyl)-1H-1,2,3-triazol-1-yl]methyl}bicyclo[3.1.0]hexane-2,3-diol]

pKi [1]: < 6.00 | A2B displacement at 1 µM [2]: 2% ^a
SMILES: CSc1nc(N)c2ncn([C@H]3[C@H](O)[C@H](O)[C@]4(Cn5cc(C(=O)O)nn5)C[C@H]34)c2n1 [Compound 44, 1-{[(1R,2R,3S,4R,5S)-4-(6-Amino-2-methylthio-9H-purin-9-yl)-2,3-dihydroxybicyclo[3.1.0]hex-1-yl]methyl}-1H-1,2,3-triazole-4-carboxylic acid]

pKi [1]: < 6.00 | A2B displacement at 1 µM [2]: 5% ^a
SMILES: CSc1nc(N)c2ncn([C@H]3[C@H](O)[C@H](O)[C@]4(Cn5cc(CC(=O)O)nn5)C[C@H]34)c2n1 [Compound 45, 2-(1-{[(1R,2R,3S,4R,5S)-4-(6-Amino-2-methylthio-9H-purin-9-yl)-2,3-dihydroxybicyclo[3.1.0]hex-1-yl]methyl}-1H-1,2,3-triazol-4-yl)acetic acid]

SMILES: CSc1nc(N)c2ncn([C@H]3[C@H](O)[C@H](O)[C@]4(Cn5cc(CCC(=O)O)nn5)C[C@H]34)c2n1 [Compound 46]
pKi [1]: < 6.00 | A2B displacement at 1 µM [2]: 1% ^a

A1 displacement at 1 µM [1]: 1% ^a | pKi [2, 4]: < 6.00
SMILES: CCN(CC)CC.CSc1nc(N)c2ncn([C@H]3[C@H](O)[C@H](O)[C@]4(CNc5c(O)c(=O)c5=O)C[C@H]34)c2n1 [Compound 47, Triethylammonium 2-{[(1R,2R,3S,4R,5S)-4-(6-Amino-2-methylthio-9H-purin-9-yl)-2,3-dihydroxybicyclo[3.1.0]hex-1-yl]methyl}amino-3,4-dioxocyclobut-1-en-1-olate]

A1 displacement at 1 µM [1]: 3% ^a | pKi [2, 4]: < 6.00
SMILES: CCN(CC)CC.CSc1nc(N)c2ncn([C@H]3[C@H](O)[C@H](O)[C@]4(CNS(=O)(=O)CC(=O)O)C[C@H]34)c2n1 [Compound 48, Triethylammonium 2-(N-{[(1R,2R,3S,4R,5S)-4-(6-amino-2-methylthio-9H-purin-9-yl)-2,3-dihydroxybicyclo[3.1.0]hex-1-yl]methyl}sulfamoyl)acetate]

— PMC9000336, “Development of Bicyclo[3.1.0]hexane-Based A3 Receptor Ligands: Closing the Gaps in the Structure–Affinity Relationships” (Molecules, 2022)
